Data on 13 compounds can be found in US20250275940A1, “PTEROSTILBENE AND SILIBININ FOR PREVENTING, AMELIORATING OR REDUCING RADIATION-INDUCED DISEASES” (UNIVERSITAT DE VALÈNCIA, priority 2021, published 2025).

The subject of series [1] is Swiss albino mice subjected to whole-body γ irradiation. Kind of series: Survival of mice subjected to whole-body γ irradiation (LD50/30). The series is classed as in vivo. From the text: Swiss albino mice (male, 9-10 weeks old, 30-32 g) were obtained from Charles River Laboratories (Wilmington, MA). This strain is among the most common used in radiation studies (Williams 2010). Mice were fed with a nutritionally complete diet (standard diet, SD) before irradiation. This was A03 from Panlab (Barcelona, Spain), which has 3,200 kcal/kg and the following nutritional composition: crude protein, 23.5%; crude fat, 4.3%; crude fiber, 3.7%; and carbohydrates, 51.1%; vitamins and minerals were provided as in the NIH-7 open formula for rat and mouse. This diet meets the dietary allowances recommended for adult mice by the American Institute of Nutrition. The animals were fed ad libitum and kept in individual metabolic cages, in which body weight and food ingestion were monitored daily. The animal room was maintained at 22° C. on a 12 h light/12 h dark cycle. Ad libitum intake of drinking water was also allowed. Care of irradiated mice followed the recommendation of the Robert Wood Johnson Medical School (Piscataway, NJ) for mouse total body irradiation (policy 15), which includes: a) use of antibiotics in the drinking water (134 mg ampicillin/kg/day, 40 mg baytril/kg/day, and 220/42 mg sulfamethoxazole/trimethoprim/kg/day), b) making drinking water readily available, c) Napa nectar Systems Engineering Lab Group Inc., Napa, CA) provided on the bottom of the cage during the first 14 days and replaced daily, d) provision of softened food served in a small Petri dish on the cage floor, e) completely sterile environment (cage, food, and water) to avoid potential immunosuppression-associated infections. A free-standing wheel inside the cage was also included to facilitate the physical exercise of the animals. All experiments were started at 10.00 h to minimize possible circadian variations. Procedures involving animals were in compliance with international laws and policies (EEC Directive 86/609, OJ L 358. 1, Dec. 12, 1987; and NIH Guide for the Care and Use of Laboratory Animals, NIH Publ. No. 85-23, 1985). Mice were subjected to g-radiation (^137Cs) (total body irradiation, TBI) in a BIOBEAM 8000 (Gamma-Service Medical GmbH, Leipzig, Germany). Single fraction radiotherapy, at total doses ranging from approx. 5.0 to 10.0 Gy, was administered at a rate of approx. […]. The irradiation distance from the source was limited to 12 cm. Radiation dosimetry was controlled using alanine dosimeters from Bruker (Billerica, MA) with dosimetry variation of +/−0.09 Gy. […] NR (nicotinamide riboside, 3-aminocarbonyl-1-b-D-ribofuranosyl-pyridinium, Elysium Health, Inc., New York, NY) was dissolved in vaccination-grade water, and the pH of the solution neutralized (pH 7.0) before oral administration (185 mg/kg×day, Obrador 2020). FSL-1 (InvivoGen, San Diego, CA) was resuspended in sterile vaccination-grade water, and administered IP (0.25 mg/kg×day, the volume administered was of […] depending on the weight of the mouse, as recommended by Kurkjian 2017). Pharmaceutical grade amifostine (Ethyol) was obtained from Cumberland Pharmaceuticals (Nashville, TN) as 500 mg sterile lyophilized powder vial, and reconstituted with physiological saline prior to use.
First, the effects of γ radiation and mice survival were studied. […] Mice received whole-body γ radiation (one single dose; ^137Cs, 0.5-0.6 Gy/min; Biobeam 8000, GSM GmbH). One Gy=absorption of 1 J of energy/kg of matter.
Next, the thirty-days survival of mice treated with γ rays (LD50/30) and pterostilbene (PT) was analysed (FIG. 1B).

The nature of series [2]: PT, SIL and NAD+ levels in circulating blood. The settings on record: treated and irradiated mice, FIG. 10B. Here is the method: Briefly, samples were analyzed through HPLC (Ultimate 3000, Thermo Fisher Scientific) and MS/MS (Waters TQ detector triple quadrupole) systems on a Hypurity™ C18 column (50×4.6 mm) using an injection volume of 5 μL. The mobile phases consisted of water (A) and acetonitrile (B). […] MS/MS data acquisition was performed under negative electrospray ionization mode. […] The fragmentary voltage was 150 V, and the collision energy 15 eV. Tissue sample preparation was as described for determination of PTER levels (above).
Whole-blood samples (0.5 ml) were collected in sodium citrate tubes at 4° C. Then a whole-blood aliquot of 0.1 ml was transferred to a cryovial containing 0.9 ml of 0.5 M ice-cold perchloric acid to lyse all blood cells. Samples were centrifuged at 10,000 g×10 min (4° C.). Supernatants were stored at −80° C. until analyzed.

The subject of a further series is cellular DNA damage. The experiment in a line: Comet assay of DNA damage in cells isolated from γ-irradiated mice. The settings on record: FIG. 14c. Format: in vivo. Here is the method:
(§1) FIG. 14. […] Cells were isolated 72 h after irradiation. […] Mice were treated and cells isolated as above (a).
This assay is a single cell gel electrophoresis assay for simple evaluation of cellular DNA damage. We used the assay kit from Abcam (ab238544) (Cambridge, UK). The manufacturer's instructions were followed step by step.

The next series relates to cellular NAD+ content. Kind of series: NAD+ content of cells isolated from mice. Format: in vivo. The settings on record: FIG. 14a. Here is the method: as §1
Isolated cells were homogenized in 0.1M phosphate buffer (pH 7.2) at 4° C. γ-glu tamylcysteine ligase (GCL), glutathione peroxidase (GPX), catalase (CAT), and superoxide dismutase 1 and 2 (SOD1 and SOD2) activities were measured as previously described in detail (Benlloch 2016). Protein concentration was determined with the Pierce BCA protein assay (Thermo Fisher Scientific). Glutathione ([…]-L-glutamyl-L-cystenyl-glycine, GSH) was determined by LC/MS as previously reported (Obrador 2014). Cell processing was performed according to published methodology, where rapid N-ethylmaleimide derivatization was used to prevent GSH auto-oxidation (Asensi 1994). NAD^+ and NADH in isolated cells were quantitated using assay kits from MyBiosource (San Diego, CA).
Presumably, the effect of the polyphenols is an antioxidant-related mechanism, whereas the NR-induced increase in NAD+ directly promotes the DNA repair activity.

The target of series [3] is nicotinamide phosphoribosyltransferase (NAMPT) (Mus musculus, UniProt Q99KQ4). The settings on record: mice treated with FK866 for 6 days, FIG. 14b.
Experimental: FK866 was administered in vivo (15 mg/kg, twice daily by intraperitoneal injection, during 6 days and starting 3 days prior to irradiation, see FIG. 11a), and was also present in the cell cultures (100 nM). Cells were isolated 72 h after irradiation. […] Mice were treated with the inhibitor for 6 days as above (a).
Formation of 14C-nicotinamide mononucleotide (NMN) from 14C-nicotinamide (NAM, (GE Healthcare Life Sciences, Björkgatan, Uppsala, Sweden) can be measured by precipitation of 14C-NMN in acetone on filter paper and scintillation counting. Cell dispersion was carried out by trypsinization (in Mg^2+- and Ca2^+-free PBS supplemented with 0.2% trypsin, 0.5 mM EDTA, and 5 mM glucose for 3 min at 37° C.). Cell pellets were obtained by centrifugation (800 g×5 min at 4° C.), and then 100 μl of phosphate buffer [0.01 M Na2HPO4/NaH2PO4 buffer, pH 7.4, containing protease inhibitor (Sigma-Aldrich)] was added to each cell sample. Samples were further processed, and NAMPT activity was determined on 30 μg of protein as described previously (Elliott G C, et al. 1980, and Schuster S, et al. 2014). Radioactivity (disintegrations/min) was measured using a Tri-Carb® Liquid Scintillation Counter from Perkin-Elmer. Background disintegrations/min from scintillation fluid was subtracted from each measurement.
The subject of series [4] is hematopoietic colony forming cells CFU-GM and CFU-GEMM. Kind of series: Colony forming cells in the bone marrow. The series is classed as in vivo. The settings on record: femurs of γ-irradiated mice, 7 days after irradiation, FIG. 14d. Here is the method:
as §1
Mice were sacrificed under aseptic conditions and femurs were isolated on day 7 post irradiation. Bone marrow cells were flushed from the isolated femurs (see above) with phosphate-buffered saline (4° C.) supplemented with 5% fetal bovine serum. Single-cell suspension was passed through 100 μm nylon mesh strainer to remove debris and clumps. Cells were washed twice with phosphate-buffered saline (4° C.) and counted using a hemocytometer. Cells were plated ex vivo at a concentration of 5×10^4 cells per 35 mm cell culture dish in Methocult GF M3434 (Stemcell Technologies, Vancouver, Canada) growth medium according to the manufacturer's protocol and incubated for 14 days at 37° C., 5% CO2, 95% humidity. Colonies were visualized on day 14 of culture using light microscopy (AxioCam MRc5, Zeiss, Oberkochen, Germany) under a polarised light and scanned in a 60 mm gridded scoring Petri dish (Stemcell Technologies). Hematopoietic colony forming cells CFU-GM and CFU-GEMM were quantified.

The mark [5] stands for this setting: 60 days after γ radiation (LD50/30), compounds administered orally, FIG. 2C.
Setting [6] is: 6 days after γ radiation (LD50/30), compounds administered orally, FIG. 2A.
Setting [7] is: 60 days post γ irradiation (LD50/30), NR oral 185 mg/kg×day for 30 days after irradiation, FSL-1 IP 0.25 mg/kg once 24 h after, FIG. 9.

nicotinamide phosphoribosyltransferase (NAMPT), sequence (Q99KQ4 whole entry): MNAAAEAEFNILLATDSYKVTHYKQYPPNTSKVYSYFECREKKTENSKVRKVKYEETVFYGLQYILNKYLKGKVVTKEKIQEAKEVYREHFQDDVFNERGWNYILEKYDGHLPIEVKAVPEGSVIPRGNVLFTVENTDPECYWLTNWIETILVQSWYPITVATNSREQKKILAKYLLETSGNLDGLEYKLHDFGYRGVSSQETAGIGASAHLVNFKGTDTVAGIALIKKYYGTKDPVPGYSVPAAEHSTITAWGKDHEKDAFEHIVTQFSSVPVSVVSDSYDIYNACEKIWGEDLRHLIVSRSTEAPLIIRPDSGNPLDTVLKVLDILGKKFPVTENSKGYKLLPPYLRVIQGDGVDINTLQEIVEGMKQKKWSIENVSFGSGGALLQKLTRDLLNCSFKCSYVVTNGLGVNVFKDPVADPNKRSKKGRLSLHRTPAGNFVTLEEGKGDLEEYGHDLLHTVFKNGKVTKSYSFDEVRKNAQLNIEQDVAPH

In series [1] (setting [5]), `O=c1cc(-c2ccc(O)c(O)c2)oc2cc(O)cc(O)c12` [Luteolin, luteolin] registered a survival of 0%. Moreover, the “percentage of survival reduced in” value in series [1] (after 30 days, γ radiation (LD50/30), oral, FIG. 2B) is reported as “about 40%”. With `O=C(O[C@@H]1Cc2c(O)cc(O)cc2O[C@@H]1c1cc(O)c(O)c(O)c1)c1cc(O)c(O)c(O)c1` [EGCG, epigallocatechin gallate], the figures for the survival entry in series [1] (setting [6]) and in series [1] (setting [5]) were “around 100%” and 0%, respectively. For `COc1cc([C@@H]2Oc3cc(C4Oc5cc(O)cc(O)c5C(=O)[C@H]4O)ccc3O[C@H]2CO)ccc1O` (stereo in doubt) [SIL, 3,5,7-trihydroxy-2-[3-(4-hydroxy-3-methoxyphenyl)-2-(hydroxymethyl)-2,3-dihydro-1,4-benzodioxin-6-yl]-2,3-dihydrochromen-4-one], in series [1] (setting [5]), the survival result is “around 10%”. The “SIL levels in circulating blood, 30 min vs 120 min” value in series [2] is given as “higher 30 min after”. In series [1] (setting [7]), `NC(=O)c1ccc[n+]([C@@H]2O[C@H](CO)[C@@H](O)[C@H]2O)c1` [NR, 3-aminocarbonyl-1-b-D-ribofuranosyl-pyridinium] had a survival of 0%. Moreover, the “DNA recovery (DNA damage COMET assay)” value with cellular DNA damage is “favored DNA recovery”. In addition, in the series on cellular NAD+ content (cells isolated 72 h after irradiation), the “decrease of NAD+ induced by γ radiation” value is reported as “prevents”. Besides, the “NAD+ content in different cell types” value with cellular NAD+ content (cells isolated from treated mice) is given as “increases”.

`O=C(CCc1ccc(O)cc1)c1c(O)cc(O)cc1O[C@@H]1O[C@H](CO)[C@@H](O)[C@H](O)[C@H]1O` [Phloridzin, phloridzin] gave a survival in series [1] (setting [5]) of 0%. Consider `O=c1c(O)c(-c2ccc(O)c(O)c2)oc2cc(O)cc(O)c12` [Quercetin, quercetin], for which the survival in series [1] (setting [5]) amounted to 0%.

For the compound `O=c1c(-c2ccc(O)cc2)coc2cc(O)cc(O)c12` [Genistein, genistein], the survival entry in series [1] (setting [5]) was “around 7%”.

With `O=C(O)c1cc(O)c(O)c(O)c1` [Gallic acid, gallic acid], the survival result in series [1] (setting [6]) is on record as “around 100%”; in series [1] (setting [5]), “around 5%”.

For the compound `Oc1ccc(C=Cc2cc(O)cc(O)c2)cc1` [Resv, resveratrol], the “radioprotective effects compared with PT” value in series [1] (orally once per day, 5 days before and 2 days after γ irradiation (7.2 Gy), FIG. 1C) is listed as “lower than those of PT”. Regarding `O=C1C[C@@H](c2ccc(O)cc2)Oc2cc(O)cc(O)c21` [Naringerin, naringenin], the survival in series [1] (setting [5]) is 0%. Take `Oc1cc(O)c2cc(O)c(-c3cc(O)c(O)c(O)c3)[o+]c2c1` [Delphinidin]: in series [1] (setting [5]), the survival result was “around 12%”. Regarding `O=C(/C=C/c1cccnc1)NCCCCC1CCN(C(=O)c2ccccc2)CC1` [FK866, reference compound], the NAMPT activity result in series [3] is recorded as “drastic decrease”. In the series on cellular NAD+ content (FK866 15 mg/kg twice daily IP 6 days and 100 nM in cell cultures), the “NAD+ levels in mice treated with PT+SIL+NR or PT+SIL+NR+γ rays” value is recorded as “decreased”. FSL-1: the survival in series [1] (setting [7]) is listed as 5%. In series [4], the “hematopoietic colony forming cells CFU-GEMM” value is recorded as “increases” and the “hematopoietic colony forming cells CFU-GM” value is “increases”.
